The results in this text go back to paper PMC10175918 (Communications Biology, 2023).

Where two headings read alike, the source gives them in different places.

Assay in all cases: cell-based
Parameters in all cases: species or system HEK293A; AP-TGFα shedding assay, transfected GPCR plus chimeric Gα mixture, AP release as % of TPA response
Conditions in all cases: HEK293-A

The target in test [1] is T1, leukotriene B4 receptor 2 (Homo sapiens, UniProt Q9NPC1).
T1 construct: gene LTB4R2
T1 sequence (Q9NPC1 1-358): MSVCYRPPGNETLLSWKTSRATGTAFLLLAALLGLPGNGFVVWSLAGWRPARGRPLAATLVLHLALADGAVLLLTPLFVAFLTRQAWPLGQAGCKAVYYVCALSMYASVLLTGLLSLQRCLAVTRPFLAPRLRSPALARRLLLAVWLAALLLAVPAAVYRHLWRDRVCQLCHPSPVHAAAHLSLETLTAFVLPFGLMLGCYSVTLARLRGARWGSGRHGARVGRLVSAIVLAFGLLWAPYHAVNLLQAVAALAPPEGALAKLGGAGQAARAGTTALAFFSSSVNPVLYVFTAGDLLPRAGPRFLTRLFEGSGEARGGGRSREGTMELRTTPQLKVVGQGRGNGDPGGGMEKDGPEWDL

In test [2] the target is T2, secretin receptor (Homo sapiens, UniProt P47872).
T2 construct: gene SCTR

The target of test [3] is T3, G protein-coupled receptor 17 short (Homo sapiens, UniProt Q13304).
T3 construct: gene GPR17; short isoform

Test [4] concerns the target T4, lysophosphatidic acid receptor 4 (Homo sapiens, UniProt Q99677).
T4 construct: gene LPAR4

The target of test [5] is T5, C-C motif chemokine receptor 7 (Homo sapiens, UniProt P32248).
T5 construct: gene CCR7
T5 sequence (P32248 1-378): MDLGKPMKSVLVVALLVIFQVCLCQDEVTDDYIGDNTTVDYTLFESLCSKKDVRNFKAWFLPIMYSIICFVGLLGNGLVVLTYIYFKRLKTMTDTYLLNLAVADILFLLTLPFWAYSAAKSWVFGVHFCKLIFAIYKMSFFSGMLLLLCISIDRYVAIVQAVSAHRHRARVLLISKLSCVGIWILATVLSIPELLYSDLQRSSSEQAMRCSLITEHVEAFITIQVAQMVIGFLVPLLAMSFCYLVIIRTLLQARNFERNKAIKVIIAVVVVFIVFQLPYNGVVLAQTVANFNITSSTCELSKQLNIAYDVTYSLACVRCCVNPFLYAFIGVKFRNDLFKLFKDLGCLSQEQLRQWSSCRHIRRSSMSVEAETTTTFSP

The target of test [6] is T6, chemerin chemokine-like receptor 1 (Homo sapiens, UniProt Q99788).
T6 construct: gene CMKLR1
T6 sequence (Q99788 1-373): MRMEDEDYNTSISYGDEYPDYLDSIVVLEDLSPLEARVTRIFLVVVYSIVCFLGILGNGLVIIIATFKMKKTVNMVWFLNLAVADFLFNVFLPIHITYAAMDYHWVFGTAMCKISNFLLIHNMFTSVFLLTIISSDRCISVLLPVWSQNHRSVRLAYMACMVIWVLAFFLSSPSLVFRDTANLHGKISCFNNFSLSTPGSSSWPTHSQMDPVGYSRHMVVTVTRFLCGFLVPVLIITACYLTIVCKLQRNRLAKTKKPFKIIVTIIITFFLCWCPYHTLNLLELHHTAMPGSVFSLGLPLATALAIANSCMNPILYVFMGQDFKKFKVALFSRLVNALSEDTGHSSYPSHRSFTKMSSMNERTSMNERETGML

Test [7] concerns the target T7, neurotensin receptor type 2 (Homo sapiens, UniProt O95665).
T7 construct: gene NTSR2

Test [8] addresses T8, 5-hydroxytryptamine receptor 1E (Homo sapiens, UniProt P28566).
T8 construct: gene HTR1E

For test [9], the target named is T9, relaxin/insulin-like family peptide receptor 2 (Homo sapiens, UniProt Q8WXD0).
T9 construct: gene RXFP2

Test [10] deals with T10, purinergic receptor P2Y, G-protein coupled, 1 (Homo sapiens, UniProt P47900).
T10 construct: gene P2RY1

For test [11], the target named is T11, relaxin/insulin-like family peptide receptor 4 (Homo sapiens, UniProt Q8TDU9).
T11 construct: gene RXFP4

Setting [12] is: read-out: % GPCR activation of 10μM Sofosbuvir compared to TPA.
Setting [13] is: read-out: % GPCR activation of 100μM Favipiravir compared to TPA.
[14] abbreviates: read-out: % GPCR activation of 10µM Remdesivir compared to TPA.
Setting [15] is: read-out: % GPCR activation of 10μM GS441524 compared to TPA.
[16] abbreviates: read-out: % GPCR activation of 10µM Molnupiravir compared to TPA.

T2 sequence (P47872 whole entry): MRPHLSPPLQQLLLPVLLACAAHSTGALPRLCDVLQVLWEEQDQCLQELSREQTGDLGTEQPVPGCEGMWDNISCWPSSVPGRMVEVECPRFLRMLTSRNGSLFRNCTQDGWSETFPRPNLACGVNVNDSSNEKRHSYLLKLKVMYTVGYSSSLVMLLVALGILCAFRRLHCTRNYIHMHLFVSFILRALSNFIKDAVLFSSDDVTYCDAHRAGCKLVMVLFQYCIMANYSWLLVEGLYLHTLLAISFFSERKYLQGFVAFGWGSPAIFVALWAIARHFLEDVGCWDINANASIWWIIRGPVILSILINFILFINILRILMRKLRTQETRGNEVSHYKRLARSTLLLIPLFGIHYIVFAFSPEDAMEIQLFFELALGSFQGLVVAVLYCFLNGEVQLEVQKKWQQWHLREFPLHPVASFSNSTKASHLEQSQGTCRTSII
T3 sequence (Q13304 whole entry, canonical isoform): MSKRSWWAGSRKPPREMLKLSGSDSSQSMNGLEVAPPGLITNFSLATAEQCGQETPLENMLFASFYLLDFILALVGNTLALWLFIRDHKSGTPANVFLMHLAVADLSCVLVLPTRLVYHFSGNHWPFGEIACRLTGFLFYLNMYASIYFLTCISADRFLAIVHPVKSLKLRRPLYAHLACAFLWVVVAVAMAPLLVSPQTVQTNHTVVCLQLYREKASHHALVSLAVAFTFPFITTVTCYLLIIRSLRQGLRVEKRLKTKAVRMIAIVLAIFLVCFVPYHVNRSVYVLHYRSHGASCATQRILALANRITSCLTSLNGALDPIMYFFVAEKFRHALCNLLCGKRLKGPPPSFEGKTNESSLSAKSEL
T7 sequence (O95665 whole entry): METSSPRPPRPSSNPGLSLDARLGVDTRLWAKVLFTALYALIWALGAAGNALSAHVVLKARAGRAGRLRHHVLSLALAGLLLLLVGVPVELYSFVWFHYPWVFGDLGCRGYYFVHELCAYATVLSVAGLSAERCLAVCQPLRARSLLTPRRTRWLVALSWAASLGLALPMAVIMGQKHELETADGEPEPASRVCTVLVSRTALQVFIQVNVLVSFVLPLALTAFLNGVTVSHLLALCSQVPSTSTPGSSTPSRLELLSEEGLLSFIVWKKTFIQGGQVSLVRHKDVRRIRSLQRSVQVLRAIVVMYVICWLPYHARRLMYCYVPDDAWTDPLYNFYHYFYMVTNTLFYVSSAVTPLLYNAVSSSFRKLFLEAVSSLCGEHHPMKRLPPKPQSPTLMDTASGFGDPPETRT
T10 sequence (P47900 whole entry): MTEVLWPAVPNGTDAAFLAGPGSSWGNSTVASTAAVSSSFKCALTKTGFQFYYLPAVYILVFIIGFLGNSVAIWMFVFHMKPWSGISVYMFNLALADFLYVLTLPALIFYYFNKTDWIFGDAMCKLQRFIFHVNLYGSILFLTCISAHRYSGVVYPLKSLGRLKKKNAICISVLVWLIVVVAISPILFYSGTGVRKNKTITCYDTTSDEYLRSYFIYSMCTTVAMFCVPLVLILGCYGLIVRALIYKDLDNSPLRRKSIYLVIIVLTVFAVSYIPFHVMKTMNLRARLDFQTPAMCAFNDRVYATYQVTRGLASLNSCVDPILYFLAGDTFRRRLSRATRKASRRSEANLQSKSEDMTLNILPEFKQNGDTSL
T8 sequence (P28566 whole entry): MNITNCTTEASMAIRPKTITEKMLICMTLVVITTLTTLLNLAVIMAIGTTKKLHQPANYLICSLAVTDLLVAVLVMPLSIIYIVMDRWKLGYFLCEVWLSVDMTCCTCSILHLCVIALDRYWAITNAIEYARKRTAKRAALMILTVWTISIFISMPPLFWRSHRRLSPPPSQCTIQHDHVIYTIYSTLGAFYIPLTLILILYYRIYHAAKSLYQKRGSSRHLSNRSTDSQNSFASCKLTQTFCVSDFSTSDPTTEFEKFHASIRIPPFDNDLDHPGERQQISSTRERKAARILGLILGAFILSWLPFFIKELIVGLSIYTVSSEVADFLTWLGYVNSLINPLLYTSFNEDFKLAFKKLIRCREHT
T9 sequence (Q8WXD0 whole entry): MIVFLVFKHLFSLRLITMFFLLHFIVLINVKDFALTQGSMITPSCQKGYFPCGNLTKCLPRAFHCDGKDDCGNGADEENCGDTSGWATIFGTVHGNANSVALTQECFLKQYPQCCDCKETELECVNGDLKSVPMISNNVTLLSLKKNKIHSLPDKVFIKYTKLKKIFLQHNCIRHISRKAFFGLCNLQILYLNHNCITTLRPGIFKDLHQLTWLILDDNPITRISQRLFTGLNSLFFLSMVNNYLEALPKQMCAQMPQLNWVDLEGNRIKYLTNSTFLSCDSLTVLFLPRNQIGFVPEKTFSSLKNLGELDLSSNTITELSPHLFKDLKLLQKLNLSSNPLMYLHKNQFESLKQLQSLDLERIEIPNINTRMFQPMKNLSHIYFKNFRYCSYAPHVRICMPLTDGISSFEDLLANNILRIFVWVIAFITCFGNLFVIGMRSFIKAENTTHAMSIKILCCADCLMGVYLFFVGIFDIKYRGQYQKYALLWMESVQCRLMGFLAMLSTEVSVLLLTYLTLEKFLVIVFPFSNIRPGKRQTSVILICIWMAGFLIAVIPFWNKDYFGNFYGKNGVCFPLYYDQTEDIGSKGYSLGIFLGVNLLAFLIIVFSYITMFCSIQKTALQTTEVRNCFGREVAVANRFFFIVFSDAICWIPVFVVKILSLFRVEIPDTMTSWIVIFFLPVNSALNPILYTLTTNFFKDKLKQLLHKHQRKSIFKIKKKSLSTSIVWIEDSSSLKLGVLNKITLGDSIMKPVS
T11 sequence (Q8TDU9 whole entry): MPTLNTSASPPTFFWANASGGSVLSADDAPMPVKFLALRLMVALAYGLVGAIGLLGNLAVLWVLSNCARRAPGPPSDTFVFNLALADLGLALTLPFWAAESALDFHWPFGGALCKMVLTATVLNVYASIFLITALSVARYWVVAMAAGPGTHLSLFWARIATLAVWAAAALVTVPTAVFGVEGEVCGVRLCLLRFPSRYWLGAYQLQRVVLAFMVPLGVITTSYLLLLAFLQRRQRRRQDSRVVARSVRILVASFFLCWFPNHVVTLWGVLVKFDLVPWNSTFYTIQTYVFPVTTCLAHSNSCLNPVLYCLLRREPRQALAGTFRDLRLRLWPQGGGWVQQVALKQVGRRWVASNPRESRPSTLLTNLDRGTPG
T4 sequence (Q99677 whole entry): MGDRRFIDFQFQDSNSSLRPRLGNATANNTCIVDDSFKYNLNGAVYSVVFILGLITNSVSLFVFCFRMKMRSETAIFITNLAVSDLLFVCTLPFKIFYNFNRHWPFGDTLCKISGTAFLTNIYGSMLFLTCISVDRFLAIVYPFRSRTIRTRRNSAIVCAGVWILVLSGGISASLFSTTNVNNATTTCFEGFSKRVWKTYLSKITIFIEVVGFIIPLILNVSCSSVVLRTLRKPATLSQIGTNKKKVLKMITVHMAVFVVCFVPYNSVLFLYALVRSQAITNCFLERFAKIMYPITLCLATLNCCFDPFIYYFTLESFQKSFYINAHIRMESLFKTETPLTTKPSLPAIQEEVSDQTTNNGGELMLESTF

For `CC(C)OC(=O)[C@H](C)N[P@](=O)(OC[C@H]1O[C@@H](n2ccc(=O)[nH]c2=O)[C@](C)(F)[C@@H]1O)Oc1ccccc1` [sofosbuvir], the activity at 10 µM in [1] (setting [12]) is 1.86%; in test [2] (setting [12]) it was 0.153%; in [3] (setting [12]), 1.81%; in test [4] (setting [12]) it was 3.13%; in [5] (setting [12]), -0.917%; in test [6] (setting [12]), -0.939%. In addition, the activity at 10 µM was 0.255% in [7] (setting [12]); -1.21% in [8] (setting [12]); -1.51% in test [9] (setting [12]); -4.63% in [10] (setting [12]); -1.57% in [11] (setting [12]).
In the case of `NC(=O)c1nc(F)cnc1O` [favipiravir, 6-fluoro-3-hydroxy-2-pyrazinecarboxamide], the activity at 100 µM in [1] (setting [13]) was -0.0275%; in [2] (setting [13]), -0.513%; in [3] (setting [13]) it was -0.501%; in test [4] (setting [13]), -0.546%; in [5] (setting [13]) it was -0.335%; in test [6] (setting [13]), 2.98%. The activity at 100 µM is -3.41% in test [7] (setting [13]); 0.555% in test [8] (setting [13]); -0.673% in test [9] (setting [13]); 0.43% in test [10] (setting [13]); 1.69% in test [11] (setting [13]).
On to `CCC(CC)COC(=O)[C@H](C)N[P@](=O)(OC[C@H]1O[C@@](C#N)(c2ccc3c(N)ncnn23)[C@H](O)[C@@H]1O)Oc1ccccc1` [remdesivir], for which the activity at 10 µM in test [1] (setting [14]) is -0.974%; in test [2] (setting [14]) it was -0.951%; in test [3] (setting [14]) it was 2.96%; in [4] (setting [14]) it was -0.0834%; in [6] (setting [14]) it was -1.38%; in [7] (setting [14]), -1.86%. The activity at 10 µM in [8] (setting [14]) was -0.0718%; in test [9] (setting [14]), 0.369%; in test [10] (setting [14]), 11%; in test [11] (setting [14]), 0.997%.
In the case of `N#C[C@@]1(c2ccc3c(N)ncnn23)O[C@H](CO)[C@@H](O)[C@H]1O` [GS441524], the activity at 10 µM in [1] (setting [15]) is -0.182%; in test [2] (setting [15]), 0.894%; in test [3] (setting [15]), 2.36%; in [4] (setting [15]) it was 1.19%; in test [5] (setting [15]) it was -0.998%; in test [6] (setting [15]), -4.93%. The activity at 10 µM was 1.01% in test [7] (setting [15]); -1.38% in [8] (setting [15]); -1.3% in test [9] (setting [15]); -0.459% in test [10] (setting [15]); -0.338% in test [11] (setting [15]).
For `CC(C)C(=O)OC[C@H]1O[C@@H](n2ccc(NO)nc2=O)[C@H](O)[C@@H]1O` [molnupiravir], the activity at 10 µM in [1] (setting [16]) was -0.206%; in test [2] (setting [16]), -0.0837%; in test [3] (setting [16]), 0.174%; in test [4] (setting [16]), -0.213%; in [5] (setting [16]), 0.546%; in [6] (setting [16]) it was -0.313%. Also, the activity at 10 µM was 0.128% in test [7] (setting [16]); -0.994% in test [8] (setting [16]); -1.68% in test [9] (setting [16]); -11.8% in [10] (setting [16]); -0.46% in test [11] (setting [16]).
